The target in one data set is JAK1 (Homo sapiens (Human), UniProt P23458). The experiment in a line: Biochemical JAK kinase assay (LanthaScreen), JAK1. As to conditions: converted from pIC50 using Cheng-Prusoff; ATP 25 μM. The method, then:
(§1) Assay 1: Biochemical JAK Kinase Assays
(§2) A panel of four LanthaScreen JAK biochemical assays (JAK1, 2, 3 and Tyk2) were carried in a common kinase reaction buffer (50 mM HEPES, pH 7.5, 0.01% Brij-35, 10 mM MgCl2, and 1 mM EGTA). Recombinant GST-tagged JAK enzymes and a GFP-tagged STAT1 peptide substrate were obtained from Life Technologies.
(§3) Serially diluted compounds were pre-incubated with each of the four JAK enzymes and the substrate in white 384-well microplates (Corning) at ambient temperature for 1 h. ATP was subsequently added to initiate the kinase reactions in 10 μL total volume, with 1% DMSO. […] Kinase reactions were allowed to proceed for 1 hour at ambient temperature before a 10 μL preparation of EDTA (10 mM final concentration) and Tb-anti-pSTAT1 (pTyr701) antibody (Life Technologies, 2 nM final concentration) in TR-FRET dilution buffer (Life Technologies) was added. The plates were allowed to incubate at ambient temperature for 1 h before being read on the EnVision reader (Perkin Elmer). Emission ratio signals (520 nm/495 nm) were recorded and utilized to calculate the percent inhibition values based on DMSO and background controls.
(§4) For dose-response analysis, percent inhibition data were plotted vs. compound concentrations, and IC50 values were determined from a 4-parameter robust fit model with the Prism software (GraphPad Software). Results were expressed as pIC50 (negative logarithm of IC50) and subsequently converted to pKi (negative logarithm of dissociation constant, Ki) using the Cheng-Prusoff equation.

In a further data set the target is JAK2 (Homo sapiens (Human), UniProt O60674). Nature of the data set: Biochemical JAK kinase assay (LanthaScreen), JAK2. To be noted: converted from pIC50 using Cheng-Prusoff; ATP 3 μM. The method, then: as §1, §2, §3, §4
Data set [1] in a line: Lung and plasma exposure in mice after oral aspiration. The format is in vivo. To be noted: mouse, other: oral aspiration, 50 µg/animal; for concentration at 5 h: Balb/c mice, 1 mg/mL, 50 μL via oral aspiration. As to the method:
Adult Balb/c mice from Harlan were used in the assay. […] Animals were placed in lateral recumbency post dose and monitored for full recovery from anesthesia before being returned to their home cage. Four hours later, animals were once again briefly anesthetized and challenged with either vehicle or IL-13 (0.03 μg total dose delivered, 50 μL total volume) via oral aspiration before being monitored for recovery from anesthesia and returned to their home cage. One hour after vehicle or IL-13 administration, whole blood and lungs were collected for both pSTAT6 detection in lung homogenates using a Perkin Elmer AlphaLISA® SureFire® Ultra™ HVp-STAT6 (Tyr641) assay kit and for total drug concentration analysis in both lung and plasma. Blood samples were centrifuged (Eppendorf centrifuge, 5804R) for 4 minutes at approximately 12,000 rpm at 4° C. to collect plasma. […] Plasma and lung levels of test compound were determined by LC-MS analysis against analytical standards constructed into a standard curve in the test matrix. A lung to plasma ratio was determined as the ratio of the lung concentration in ng/g to the plasma concentration in ng/mL at 5 hours.

SMILES strings stand for the structures. Read-outs that look alike come from different tables or passages of the source.

JAK2, sequence (O60674 whole entry): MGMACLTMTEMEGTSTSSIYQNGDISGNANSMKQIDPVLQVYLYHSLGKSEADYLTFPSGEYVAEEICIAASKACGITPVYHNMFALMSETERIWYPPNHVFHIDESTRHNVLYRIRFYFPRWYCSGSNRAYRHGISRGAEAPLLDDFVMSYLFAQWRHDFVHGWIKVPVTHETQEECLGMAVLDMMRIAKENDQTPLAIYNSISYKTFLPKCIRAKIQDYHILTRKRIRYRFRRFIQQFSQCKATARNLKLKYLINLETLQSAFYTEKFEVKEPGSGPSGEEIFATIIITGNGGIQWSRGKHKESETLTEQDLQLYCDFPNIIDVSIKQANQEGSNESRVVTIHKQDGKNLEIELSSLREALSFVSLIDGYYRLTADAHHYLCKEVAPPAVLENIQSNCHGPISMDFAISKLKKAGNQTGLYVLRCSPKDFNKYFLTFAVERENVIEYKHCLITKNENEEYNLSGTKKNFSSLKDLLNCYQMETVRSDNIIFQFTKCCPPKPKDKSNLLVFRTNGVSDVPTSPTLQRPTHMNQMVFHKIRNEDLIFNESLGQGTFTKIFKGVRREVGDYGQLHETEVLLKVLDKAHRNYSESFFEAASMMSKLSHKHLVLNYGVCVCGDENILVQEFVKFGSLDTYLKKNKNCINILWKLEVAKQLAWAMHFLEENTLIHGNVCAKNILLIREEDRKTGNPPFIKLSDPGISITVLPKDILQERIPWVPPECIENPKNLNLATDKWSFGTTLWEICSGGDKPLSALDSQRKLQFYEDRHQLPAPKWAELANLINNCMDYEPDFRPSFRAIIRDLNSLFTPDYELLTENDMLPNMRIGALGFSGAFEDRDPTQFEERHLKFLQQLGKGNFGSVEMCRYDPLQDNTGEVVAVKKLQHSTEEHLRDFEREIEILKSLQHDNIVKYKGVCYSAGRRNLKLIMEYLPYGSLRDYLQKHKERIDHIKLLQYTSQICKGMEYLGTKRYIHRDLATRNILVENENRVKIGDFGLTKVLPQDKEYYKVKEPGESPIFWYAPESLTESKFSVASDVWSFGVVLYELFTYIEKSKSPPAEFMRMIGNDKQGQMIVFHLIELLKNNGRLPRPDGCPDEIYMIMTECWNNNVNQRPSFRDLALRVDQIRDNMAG
JAK1, sequence (P23458 whole entry): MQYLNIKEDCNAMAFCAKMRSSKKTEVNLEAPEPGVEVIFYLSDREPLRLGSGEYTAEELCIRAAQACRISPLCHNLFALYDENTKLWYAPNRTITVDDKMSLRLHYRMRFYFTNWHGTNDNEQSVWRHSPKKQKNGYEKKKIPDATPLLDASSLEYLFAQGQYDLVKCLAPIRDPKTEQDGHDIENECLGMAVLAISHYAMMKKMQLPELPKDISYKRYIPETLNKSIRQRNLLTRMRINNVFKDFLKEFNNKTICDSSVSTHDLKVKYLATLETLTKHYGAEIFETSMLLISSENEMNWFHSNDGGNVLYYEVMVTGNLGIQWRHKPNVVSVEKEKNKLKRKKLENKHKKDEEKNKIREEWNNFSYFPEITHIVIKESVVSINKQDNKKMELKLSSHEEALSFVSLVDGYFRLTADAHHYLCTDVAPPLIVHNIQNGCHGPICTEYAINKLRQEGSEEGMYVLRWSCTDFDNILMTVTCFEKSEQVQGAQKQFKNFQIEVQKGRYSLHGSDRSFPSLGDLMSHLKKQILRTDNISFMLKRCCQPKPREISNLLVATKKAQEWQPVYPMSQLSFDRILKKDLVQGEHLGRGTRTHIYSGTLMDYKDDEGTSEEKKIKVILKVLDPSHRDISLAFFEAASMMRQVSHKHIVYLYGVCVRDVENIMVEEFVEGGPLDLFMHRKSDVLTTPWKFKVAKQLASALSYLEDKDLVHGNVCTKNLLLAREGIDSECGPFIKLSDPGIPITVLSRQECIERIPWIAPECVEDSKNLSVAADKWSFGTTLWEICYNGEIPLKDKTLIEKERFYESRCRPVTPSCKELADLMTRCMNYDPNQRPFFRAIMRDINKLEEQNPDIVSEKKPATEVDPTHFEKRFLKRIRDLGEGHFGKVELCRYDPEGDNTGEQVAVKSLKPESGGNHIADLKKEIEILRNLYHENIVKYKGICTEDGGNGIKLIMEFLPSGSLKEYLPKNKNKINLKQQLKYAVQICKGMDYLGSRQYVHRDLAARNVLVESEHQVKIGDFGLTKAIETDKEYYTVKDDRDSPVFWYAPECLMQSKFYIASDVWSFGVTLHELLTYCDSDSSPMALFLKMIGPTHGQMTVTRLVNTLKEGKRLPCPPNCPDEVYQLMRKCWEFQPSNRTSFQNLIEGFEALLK

On to `CCc1cc(O)c(F)cc1-c1ccc2c(-c3nc4c([nH]3)CN(C(C)C)[C@H](C(=O)N3CC(N(C)C)C3)C4)n[nH]c2c1` [Example 8, (S)-(3-(dimethylamino)azetidin-1-yl)(2-(6-(2-ethyl-5-fluoro-4-hydroxyphenyl)-1H-indazol-3-yl)-5-isopropyl-4,5,6,7-tetrahydro-3H-imidazo[4,5-c]pyridin-6-yl)methanone], for which the “JAK1 pKi” value on JAK1 came to 10.4. In addition, the “JAK2 pKi” value on JAK2 amounted to 10.8. The Kp at 5 h in data set [1] (Balb/c, lung and plasma, lung ng/g to plasma ng/mL, mice, read-out: Lung to Plasma ratio at 5 hr) was found to be 381. The concentration at 5 h is 22100 ± 5550 ng/g in data set [1] (lung, read-out: Lung Concentration (ng/g) at 5 hr) and 58 ± 17 ng/mL in data set [1] (plasma, read-out: Plasma Concentration (ng/mL) at 5 hr).

The values are drawn from patent US10844057B2, “Process for preparing JAK inhibitors and intermediates thereof” (priority 2018, dated 2020).
